# Tests used:
# [1] = Concentration in rat plasma after subcutaneous administration; format: in vivo; conditions: sc, rats, 50 mg/kg, an hour after administration
# Description: The compounds of the present invention are better absorbed by the subcutaneous route in mammals such as rats or rabbits, as compared with the epoxysuccinic acid derivatives of the German Patent Laid Open Application described above and Chemical Abstracts, 87, 68129a (1977). To determine absorption, these compounds were administered subcutaneously to rats at a dose of 50 mg/kg, and the concentration of the test compound in rat plasma at an hour after the administration is shown in following Table 1.
# papain = target: T1, papain (Carica papaya, UniProt P00784); test: Papain inhibitory activity (method of K. Hanada et al.); format: biochemical; conditions: papain 80 μg/ml, Sigma, twice crystallized
# T1 construct: purchased Sigma Chem. Co
# T1 sequence (P00784 134-345): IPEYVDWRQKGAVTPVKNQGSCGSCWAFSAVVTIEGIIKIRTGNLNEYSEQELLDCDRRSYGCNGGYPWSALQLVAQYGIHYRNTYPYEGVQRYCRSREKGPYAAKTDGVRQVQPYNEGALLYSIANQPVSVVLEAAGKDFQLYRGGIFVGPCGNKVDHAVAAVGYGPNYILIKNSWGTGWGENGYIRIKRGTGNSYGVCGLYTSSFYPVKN
# Description: Papain inhibitory activity of the compounds of the present invention was assayed by the method of K. Hanada et al. [Agric. Biol. Chem., 42, (3) 523 (1978)] using papain (80 μg/ml, Sigma Chem. Co.) after twice crystallization.
# [2] = target: T2, CANP prepared from a muscle of hereditary muscular dystrophy chicken (Gallus gallus, UniProt P00789); test: CANP inhibitory activity (method of Ishiura et al.); format: biochemical; conditions: 50% inhibition in molar ratio to the enzyme
# T2 construct: from tissue; host or cells: muscle of hereditary muscular dystrophy chicken
# T2 sequence (P00789 1-705): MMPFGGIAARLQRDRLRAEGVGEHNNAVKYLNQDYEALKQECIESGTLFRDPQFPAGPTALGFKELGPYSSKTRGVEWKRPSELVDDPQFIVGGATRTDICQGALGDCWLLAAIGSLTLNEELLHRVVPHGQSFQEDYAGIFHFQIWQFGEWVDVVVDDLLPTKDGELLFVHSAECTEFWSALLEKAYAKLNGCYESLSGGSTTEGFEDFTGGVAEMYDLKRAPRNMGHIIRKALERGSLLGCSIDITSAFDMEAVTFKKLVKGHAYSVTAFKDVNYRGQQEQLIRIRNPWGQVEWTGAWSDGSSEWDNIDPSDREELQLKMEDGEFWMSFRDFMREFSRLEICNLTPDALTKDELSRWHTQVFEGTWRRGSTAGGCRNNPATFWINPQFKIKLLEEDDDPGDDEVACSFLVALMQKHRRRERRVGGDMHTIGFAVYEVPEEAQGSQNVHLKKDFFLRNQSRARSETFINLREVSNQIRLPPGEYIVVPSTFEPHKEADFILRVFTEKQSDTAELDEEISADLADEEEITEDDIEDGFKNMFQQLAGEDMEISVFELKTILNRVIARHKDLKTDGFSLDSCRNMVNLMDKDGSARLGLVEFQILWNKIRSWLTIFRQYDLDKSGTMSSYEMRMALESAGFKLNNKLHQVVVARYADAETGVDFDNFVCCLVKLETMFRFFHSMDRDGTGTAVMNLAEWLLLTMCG
# Description: Their muscular dystrophy inhibitory activity was assayed by the method of Ishiura et al., [J. of Biochem., 84, 225 (1978)] using CANP prepared from a muscle of hereditary muscular dystrophy chicken, and the resulting value for 50% inhibition in the molar ratios for the enzyme expressed as ID50 (mole/mole) is shown in Table 1 below.
SMILES,concentration at 1 h [1] [ng/mL],Papain inhibitory activity ID50 (amount of inhibitor for 50% inhibition) (papain) [µg],CANP Inhibitory Activity ID50 (mole/mole) [2]
"CC(C)C[C@H](NC(=O)C1OC1C(=O)OCc1ccccc1)C(=O)NCCCCNC(=O)c1ccccc1 (mixture of isomers) [Compound 9, N-[N-(DL-3-trans-benzyloxycarbonyloxirane-2-carbonyl)-L-leucyl]-N'-benzoyl-1,4-diaminobutane]",1300,0.181,89 mole/mole
"O=C(O)[C@H]1O[C@@H]1C(=O)OCc1ccccc1 (relative stereo) [B, Benzyl hydrogen epoxysuccinate, reference compound]",,,410 mole/mole
"CC(C)C[C@H](NC(=O)C1OC1C(=O)OCc1ccccc1)C(=O)NCCCCNC(=O)OCc1ccccc1 (mixture of isomers) [Compound 10, N-[N-(DL-3-trans-benzyloxycarbonyloxirane-2-carbonyl)-L-leucyl]-N'-benzyloxycarbonyl-1,4-diaminobutane]",1600,0.260,78 mole/mole
"CC[C@H](C)[C@H](NC(=O)C1OC1C(=O)OCc1ccccc1)C(=O)NCCCCNC(=O)OCc1ccccc1 (mixture of isomers) [Compound 5, N-[N-(DL-3-benzyloxycarbonyloxirane-2-carbonyl)-L-isoleucyl]-N'-benzyloxycarbonyl-1,4-diaminobutane]",1400,0.323,92 mole/mole
"CC(C)[C@H](NC(=O)C1OC1C(=O)OCc1ccccc1)C(=O)NCCCCNC(=O)OCc1ccccc1 (mixture of isomers) [Compound 4, N-[N-(DL-3-trans-benzyloxycarbonyloxirane-2-carbonyl)-L-valyl]-N'-benzyloxycarbonyl-1,4-diaminobutane]",1200,0.436,113 mole/mole
"CC(C)C[C@H](NC(=O)C1OC1C(=O)O)C(=O)O (stereo partly drawn) [E, N--(3carboxyoxirane-2-carbonyl)-L-leucine, reference compound]",,,"4,600 mole/mole"
"CC(C)C[C@H](NC(=O)C1OC1C(=O)O)C(=O)NCCCCNC(=O)OCc1ccccc1 (mixture of isomers) [Compound 11, N-[N-(DL-3-trans-carboxyoxirane-2-carbonyl)-L-leucyl]-N'-benzyloxycarbonyl-1,4-diaminobutane]",13000,0.118,19 mole/mole
"CC(C)C[C@H](NC(=O)C1OC1C(=O)O)C(=O)NCCCCN (mixture of isomers) [Compound 12, N-[N-(DL-3-trans-carboxyoxirane-2-carbonyl)-L-leucyl]-1,4-diaminobutane]",25000,0.106,55 mole/mole
"CCOC(=O)[C@H]1O[C@@H]1C(=O)O (relative stereo) [A, Ethyl hydrogen epoxysuccinate, reference compound]",,,"5,400 mole/mole"
"CC(=O)NCCCCNC(=O)[C@H](CC(C)C)NC(=O)C1OC1C(=O)OCc1ccccc1 (mixture of isomers) [Compound 8, N-[N-(DL-3-trans-benzyloxycarbonyloxirane-2-carbonyl)-L-leucyl]-N'-acetyl-1,4-diaminobutane]",1800,0.123,100 mole/mole
"CC(C)C[C@H](NC(=O)C1OC1C(=O)OC1CCCCC1)C(=O)NCCCCNC(=O)OCc1ccccc1 (mixture of isomers) [Compound 6, N-[N-(DL-3-trans-cyclohexyloxycarbonyloxirane-2-carbonyl)-L-leucyl]-N'-benzyloxycarbonyl-1,4-diaminobutane]",1500,0.142,75 mole/mole
"CC(C)C[C@H](NC(=O)C1OC1C(=O)OCc1ccccc1)C(=O)NCCNC(=O)OCc1ccccc1 (mixture of isomers) [Compound 3, N-[N-(DL-3-trans-benzyloxycarbonyloxirane-2-carbonyl)-L-leucyl]-N'-benzyloxycarbonyl-1,2-diaminoethane]",,0.203,
"CC(C)C[C@H](NC(=O)C1OC1C(=O)OCc1ccccc1)C(=O)NCCCCCNC(=O)OCc1ccccc1 (mixture of isomers) [Compound 2, N-[N-(DL-3-trans-benzyloxycarbonyloxirane-2-carbonyl)-L-leucyl]-N'-benzyloxycarbonyl-1,5-diaminopentane]",1500,0.481,121 mole/mole
"CCOC(=O)C1OC1C(=O)N[C@@H](CC(C)C)C(=O)OCc1ccccc1 (stereo partly drawn) [C, N--(3ethoxy-carbonyloxirane-2-carbonyl)-L-leucine benzyl ester, reference compound]",,,580 mole/mole
"CC(C)C[C@H](NC(=O)C1OC1C(=O)OC1CCCC1)C(=O)NCCCCNC(=O)OCc1ccccc1 (mixture of isomers) [Compound 7, N-[N-(DL-3-trans-cyclopentyloxycarbonyloxirane-2-carbonyl)-L-leucyl]-N'-benzyloxycarbonyl-1,4-diaminobutane]",,0.164,
"CC(C)C[C@H](NC(=O)C1OC1C(=O)OCc1ccccc1)C(=O)NCCCCCCCNC(=O)OCc1ccccc1 (mixture of isomers) [Compound 1, N-[N-(DL-3-trans-benzyloxycarbonyloxirane-2-carbonyl)-L-leucyl]-N'-benzyloxycarbonyl-1,7-diaminoheptane]",,0.302,
